Values quoted from earlier work in PubChem BioAssay AID1259409 (Chemical Carcinogenesis Research Information System (CCRIS), 2018).

Test system: rodent chemically induced tumor inhibition, incidence and multiplicity
Experiment: CCRIS tumor inhibitor studies

CN(C)CCOC(c1ccccc1)c1ccccc1
tumour outcome (control, treated, inhibition, significance) (Carcinogen: 7,12-DIMETHYLBENZ[A]ANTHRACENE, 57-97-6, Dose [Inhibitor]: 0, 0.086 UMOL 2/WK BEGINNING 1 WK POST CARCINOGEN DOSE AND CONTINUING FOR DURATION OF STUDY (STUDY DURATION: 15 WK), Route [Inhibitor]: DERMAL, Species: MOUSE, Strain/Sex: SENCAR/FEMALE, Target Tissue: Type of Lesion: SKIN: PAPILLOMA, Dose [Carcinogen]: 10 NMOL ONCE, Promoter: 12-O-TETRADECANOYLPHORBOL-13-ACETATE, 16561-29-8): 97%, 75%, 23%, not calculated | tumour outcome (control, treated, inhibition, significance) (Carcinogen: 7,12-DIMETHYLBENZ[A]ANTHRACENE, 57-97-6, Dose [Inhibitor]: 0, 0.342 UMOL 2/WK BEGINNING 1 WK POST CARCINOGEN DOSE AND CONTINUING FOR DURATION OF STUDY (STUDY DURATION: 15 WK), Route [Inhibitor]: DERMAL, Species: MOUSE, Strain/Sex: SENCAR/FEMALE, Target Tissue: Type of Lesion: SKIN: PAPILLOMA, Dose [Carcinogen]: 10 NMOL ONCE, Promoter: 12-O-TETRADECANOYLPHORBOL-13-ACETATE, 16561-29-8): 97%, 80%, 18%, not calculated | tumour outcome (control, treated, inhibition, significance) (Carcinogen: 7,12-DIMETHYLBENZ[A]ANTHRACENE, 57-97-6, Dose [Inhibitor]: 0, 0.856 UMOL 2/WK BEGINNING 1 WK POST CARCINOGEN DOSE AND CONTINUING FOR DURATION OF STUDY (STUDY DURATION: 15 WK), Route [Inhibitor]: DERMAL, Species: MOUSE, Strain/Sex: SENCAR/FEMALE, Target Tissue: Type of Lesion: SKIN: PAPILLOMA, Dose [Carcinogen]: 10 NMOL ONCE, Promoter: 12-O-TETRADECANOYLPHORBOL-13-ACETATE, 16561-29-8): 97%, 75%, 23%, not calculated | tumour outcome (control, treated, inhibition, significance) (Carcinogen: 7,12-DIMETHYLBENZ[A]ANTHRACENE, 57-97-6, Dose [Inhibitor]: 0, 10 MG A WK IN DRINKING WATER BEGINNING 1 WK POST CARCINOGEN DOSE AND CONTINUING FOR DURATION OF STUDY (STUDY DURATION, Route [Inhibitor]: ORAL, Species: MOUSE, Strain/Sex: SENCAR/MALE, Target Tissue: Type of Lesion: SKIN: PAPILLOMA, Dose [Carcinogen]: 100 NMOL IN 200 µL ACETONE ONCE, Promoter: 12-O-TETRADECANOYLPHORBOL-13-ACETATE, 16561-29-8): 95%, 98%, -3%, not calculated

CC[C@H]1OC(=O)[C@H](C)[C@@H](O[C@H]2C[C@@](C)(OC)[C@@H](O)[C@H](C)O2)[C@H](C)[C@@H](O[C@@H]2O[C@H](C)C[C@H](N(C)C)[C@H]2O)[C@](C)(OC)C[C@@H](C)C(=O)[C@H](C)[C@@H](O)[C@]1(C)O
tumour outcome (control, treated, inhibition, significance) (Carcinogen: N-NITROSOBIS(2-HYDROXYPROPYL)AMINE, 53609-64-6, Dose [Inhibitor]: 0, 0.02% IN DIET FOR 8 WK BEGINNING POST CARCINOGEN TREATMENT (STUDY DURATION: 20 WK), Route [Inhibitor]: ORAL, Species: RAT, Strain/Sex: WISTAR/MALE, Target Tissue: Type of Lesion: LUNG: ADENOCARCINOMA, Dose [Carcinogen]: 2,000 PPM IN DRINKING WATER FOR 12 WK, Promoter: NONE): 60%, 38%, 37%, not calculated | tumour outcome (control, treated, inhibition, significance) (Carcinogen: N-NITROSOBIS(2-HYDROXYPROPYL)AMINE, 53609-64-6, Dose [Inhibitor]: 0, 0.02% IN DIET FOR 8 WK BEGINNING POST CARCINOGEN TREATMENT (STUDY DURATION: 20 WK), Route [Inhibitor]: ORAL, Species: RAT, Strain/Sex: WISTAR/MALE, Target Tissue: Type of Lesion: LUNG: ADENOMA, Dose [Carcinogen]: 2,000 PPM IN DRINKING WATER FOR 12 WK, Promoter: NONE): 70%, 50%, 29%, not calculated | tumour outcome (control, treated, inhibition, significance) (Carcinogen: N-NITROSOBIS(2-HYDROXYPROPYL)AMINE, 53609-64-6, Dose [Inhibitor]: 0, 0.02% IN DIET FOR 8 WK BEGINNING POST CARCINOGEN TREATMENT (STUDY DURATION: 20 WK), Route [Inhibitor]: ORAL, Species: RAT, Strain/Sex: WISTAR/MALE, Target Tissue: Type of Lesion: LUNG: SQUAMOUS CELL CARCINOMA, Dose [Carcinogen]: 2,000 PPM IN DRINKING WATER FOR 12 WK, Promoter: NONE): 20%, 13%, 35%, not calculated

CC[C@H](C)C(=O)O[C@H]1C[C@@H](C)C=C2C=C[C@H](C)[C@H](CC[C@@H]3C[C@@H](O)CC(=O)O3)[C@H]21
tumour outcome (control, treated, inhibition, significance) (Carcinogen: 4-(N-METHYL-N-NITROSAMINO)-1-(3-PYRIDYL)-1-BUTANONE, 64091-91-4, Dose [Inhibitor]: 0, 40 PPM IN THE DIET FOR 6 MO BEGINNING 1 WK POST CARCINOGEN DOSE (STUDY DURATION: 6 MO), Route [Inhibitor]: ORAL, Species: MOUSE, Strain/Sex: STRAIN-A/MALE, Target Tissue: Type of Lesion: LUNG: TUMOR, Dose [Carcinogen]: 10 UMOL ONCE, Promoter: NONE USED): 15/15 (100%), 15/15 (100%), 0%, not significant | tumour outcome (control, treated, inhibition, significance) (Carcinogen: 4-(N-METHYL-N-NITROSAMINO)-1-(3-PYRIDYL)-1-BUTANONE, 64091-91-4, Dose [Inhibitor]: 0, 160 PPM IN THE DIET FOR 6 MO BEGINNING 1 WK POST CARCINOGEN DOSE (STUDY DURATION: 6 MO), Route [Inhibitor]: ORAL, Species: MOUSE, Strain/Sex: STRAIN-A/MALE, Target Tissue: Type of Lesion: LUNG: TUMOR, Dose [Carcinogen]: 10 UMOL ONCE, Promoter: NONE USED): 15/15 (100%), 15/15 (100%), 0%, not significant | tumour outcome (control, treated, inhibition, significance) (Carcinogen: 4-(N-METHYL-N-NITROSAMINO)-1-(3-PYRIDYL)-1-BUTANONE, 64091-91-4, Dose [Inhibitor]: 0, 400 PPM IN THE DIET FOR 6 MO BEGINNING 1 WK POST CARCINOGEN DOSE (STUDY DURATION: 6 MO), Route [Inhibitor]: ORAL, Species: MOUSE, Strain/Sex: STRAIN-A/MALE, Target Tissue: Type of Lesion: LUNG: TUMOR, Dose [Carcinogen]: 10 UMOL ONCE, Promoter: NONE USED): 15/15 (100%), 12/14 (86%), 14%, not significant

N
tumour outcome (control, treated, inhibition, significance) (Carcinogen: N-BUTYL-N-(4-HYDROXYBUTYL)NITROSAMINE, 3817-11-6, Dose [Inhibitor]: 0, 1% IN DRINKING WATER FOR 31 WK BEGINNING POST CARCINOGEN DOSE (STUDY DURATION: 36 WK), Route [Inhibitor]: ORAL, Species: RAT, Strain/Sex: F344/MALE, Target Tissue: Type of Lesion: URINARY BLADDER: CARCINOMA, Dose [Carcinogen]: 0.05% IN DRINKING WATER FOR 4 WK, Promoter: BUTYLATED HYDROXYANISOLE, 25013-16-5): 5/15 (33%), 3/15 (20%), 39%, not significant | tumour outcome (control, treated, inhibition, significance) (Carcinogen: N-BUTYL-N-(4-HYDROXYBUTYL)NITROSAMINE, 3817-11-6, Dose [Inhibitor]: 0, 1% IN DRINKING WATER FOR 31 WK BEGINNING POST CARCINOGEN DOSE (STUDY DURATION: 36 WK), Route [Inhibitor]: ORAL, Species: RAT, Strain/Sex: F344/MALE, Target Tissue: Type of Lesion: URINARY BLADDER: CARCINOMA, Dose [Carcinogen]: 0.05% IN DRINKING WATER FOR 4 WK, Promoter: SODIUM BICARBONATE, 144-55-8): 8/15 (53%), 4/15 (27%), 49%, not significant | tumour outcome (control, treated, inhibition, significance) (Carcinogen: N-BUTYL-N-(4-HYDROXYBUTYL)NITROSAMINE, 3817-11-6, Dose [Inhibitor]: 0, 1% IN DRINKING WATER FOR 31 WK BEGINNING POST CARCINOGEN DOSE (STUDY DURATION: 36 WK), Route [Inhibitor]: ORAL, Species: RAT, Strain/Sex: F344/MALE, Target Tissue: Type of Lesion: URINARY BLADDER: PAPILLOMA, Dose [Carcinogen]: 0.05% IN DRINKING WATER FOR 4 WK, Promoter: BUTYLATED HYDROXYANISOLE, 25013-16-5): 8/15 (53%), 8/15 (53%), 0%, not significant | tumour outcome (control, treated, inhibition, significance) (Carcinogen: N-BUTYL-N-(4-HYDROXYBUTYL)NITROSAMINE, 3817-11-6, Dose [Inhibitor]: 0, 1% IN DRINKING WATER FOR 31 WK BEGINNING POST CARCINOGEN DOSE (STUDY DURATION: 36 WK), Route [Inhibitor]: ORAL, Species: RAT, Strain/Sex: F344/MALE, Target Tissue: Type of Lesion: URINARY BLADDER: PAPILLOMA, Dose [Carcinogen]: 0.05% IN DRINKING WATER FOR 4 WK, Promoter: SODIUM BICARBONATE, 144-55-8): 9/15 (60%), 8/15 (53%), 12%, not significant

Cc1ccc(O)c(C(C)(C)C)c1
tumour outcome (control, treated, inhibition, significance) (Carcinogen: 7,12-DIMETHYLBENZ[A]ANTHRACENE, 57-97-6, Dose [Inhibitor]: 1.0% IN POWDERED DIET BEGINNING 1 WK POST CARCINOGEN DOSE FOR 51 WK (STUDY DURATION: 52 WK), Route [Inhibitor]: ORAL, Species: RAT, Strain/Sex: SPRAGUE-DAWLEY/FEMALE, Target Tissue: Type of Lesion: EAR DUCT: BENIGN TUMOR, Dose [Carcinogen]: 2.5 MG/100 G BW IN 0.5 ML SESAME OIL ONCE, Promoter: NONE USED): 7/19 (37%), 5/19 (26%), 29%, not calculated | tumour outcome (control, treated, inhibition, significance) (Carcinogen: 7,12-DIMETHYLBENZ[A]ANTHRACENE, 57-97-6, Dose [Inhibitor]: 1.0% IN POWDERED DIET BEGINNING 1 WK POST CARCINOGEN DOSE FOR 51 WK (STUDY DURATION: 52 WK), Route [Inhibitor]: ORAL, Species: RAT, Strain/Sex: SPRAGUE-DAWLEY/FEMALE, Target Tissue: Type of Lesion: MAMMARY GLAND: CARCINOMA, Dose [Carcinogen]: 2.5 MG/100 G BW IN 0.5 ML SESAME OIL ONCE, Promoter: NONE USED): 6/19 (32%), 6/19 (32%), 0%, not significant | tumour outcome (control, treated, inhibition, significance) (Carcinogen: 7,12-DIMETHYLBENZ[A]ANTHRACENE, 57-97-6, Dose [Inhibitor]: 1.0% IN POWDERED DIET BEGINNING 1 WK POST CARCINOGEN DOSE FOR 51 WK (STUDY DURATION: 52 WK), Route [Inhibitor]: ORAL, Species: RAT, Strain/Sex: SPRAGUE-DAWLEY/FEMALE, Target Tissue: Type of Lesion: MAMMARY GLAND: FIBROADENOMA, Dose [Carcinogen]: 2.5 MG/100 G BW IN 0.5 ML SESAME OIL ONCE, Promoter: NONE USED): 15/19 (79%), 2/19 (11%), 87%, p<0.001
